Experimental data taken from US12202835B2, “Substituted aromatic ring-linked dioxinoquinazolines and dioxinoquinolines as kinase inhibitors” (BEIJING SCITECH-MQ PHARMACEUTICALS LIMITED, priority 2018, dated 2025).

system: Ba/F3 LMNA-NTRK1-G595R cells; assay: Assay for inhibiting the proliferation of Ba/F3 LMNA-NTRK1-G595R cells (CCK-8); format: cell-based; conditions: Mus musculus, BaF3
Procedure, shortened: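 Cells seeded in 96-well plates overnight, then exposed 72 h to 9 three-fold dilutions of compound (0.25% DMSO final). Viability by CCK-8 (1-2 h at 37° C., OD 450 nm), survival normalized to untreated and cell-free blanks; IC50 by curve fitting.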

| IC50 | Compound |
| --- | --- |
| 50 to 200 nM | COCCOc1cc2nccc(Oc3ccc(NC(=O)c4cn(C(C)C)c(=O)n(-c5ccc(F)cc5)c4=O)cc3F)c2c2c1OCCO2 [Example 43, N-(3-fluoro-4-((5-(2-methoxyethoxy)-2,3-dihydro-[1,4]dioxino[2,3-f]quinolin-10-yl)oxy)phenyl)-3-(4-fluorophenyl)-1-isopropyl-2,4-dioxo-1,2,3,4-tetrahydropyrimidine-5-carboxamide] |
| ≤ 50 nM | CCn1cc(C(=O)Nc2ccc(Oc3ccnc4cc(OCCOC)c5c(c34)OCCO5)c(F)c2)c(=O)n(-c2ccc(F)cc2)c1=O [Example 44, N-(3-fluoro-4-((5-(2-methoxyethoxy)-2,3-dihydro-[1,4]dioxino[2,3-f]quinolin-10-yl)oxy)phenyl)-3-(4-fluorophenyl)-1-ethyl-2,4-dioxo-1,2,3,4-tetrahydropyrimidine-5-carboxamide] |
| 50 to 200 nM | COCCn1cc(C(=O)Nc2ccc(Oc3ccnc4cc(OC)c5c(c34)OCCO5)c(F)c2)c(=O)n(-c2ccc(F)cc2)c1=O [Example 46, N-(3-fluoro-4-((5-methoxy-2,3-dihydro-[1,4]dioxino[2,3-f]quinolin-10-yl)oxy)phenyl)-3-(4-fluorophenyl)-1-(2-methoxyethyl)-2,4-dioxo-1,2,3,4-tetrahydropyrimidine-5-carboxamide] |
| 200 to 1000 nM | CN1CCN(CCCOc2cc3nccc(Oc4ccc(NC(=O)c5cn(C)c(=O)n(-c6ccc(F)cc6)c5=O)cc4F)c3c3c2OCCO3)CC1 [Example 74, N-(3-fluoro-4-((5-(3-(4-methylpiperazin-1-yl)propoxy)-2,3-dihydro-[1,4]dioxino[2,3-f]quinolin-10-yl)oxy)phenyl)-3-(4-fluorophenyl)-1-methyl-2,4-dioxo-1,2,3,4-tetrahydropyrimidine-5-carboxamide] |

target: c-MET kinase (Homo sapiens (Human), UniProt P08581); assay: Assay of small molecular compounds for inhibiting the activity of c-MET kinase (LANCE TR-FRET); format: biochemical; conditions: read-out: CMET IC50
Procedure, shortened: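 LANCE TR-FRET assay with c-MET at 1 nM final after a 5 min room-temperature preincubation with compound (11-point, 3-fold series, 2500–0.042 nM final, 4% DMSO). ULight-JAK-1 (Tyr1023) peptide (100 nM final) and ATP (10 μM final) reacted 60 min in the dark. Inhibition was taken relative to controls, then IC50 fitted.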

c-MET kinase, sequence (P08581 25-1390): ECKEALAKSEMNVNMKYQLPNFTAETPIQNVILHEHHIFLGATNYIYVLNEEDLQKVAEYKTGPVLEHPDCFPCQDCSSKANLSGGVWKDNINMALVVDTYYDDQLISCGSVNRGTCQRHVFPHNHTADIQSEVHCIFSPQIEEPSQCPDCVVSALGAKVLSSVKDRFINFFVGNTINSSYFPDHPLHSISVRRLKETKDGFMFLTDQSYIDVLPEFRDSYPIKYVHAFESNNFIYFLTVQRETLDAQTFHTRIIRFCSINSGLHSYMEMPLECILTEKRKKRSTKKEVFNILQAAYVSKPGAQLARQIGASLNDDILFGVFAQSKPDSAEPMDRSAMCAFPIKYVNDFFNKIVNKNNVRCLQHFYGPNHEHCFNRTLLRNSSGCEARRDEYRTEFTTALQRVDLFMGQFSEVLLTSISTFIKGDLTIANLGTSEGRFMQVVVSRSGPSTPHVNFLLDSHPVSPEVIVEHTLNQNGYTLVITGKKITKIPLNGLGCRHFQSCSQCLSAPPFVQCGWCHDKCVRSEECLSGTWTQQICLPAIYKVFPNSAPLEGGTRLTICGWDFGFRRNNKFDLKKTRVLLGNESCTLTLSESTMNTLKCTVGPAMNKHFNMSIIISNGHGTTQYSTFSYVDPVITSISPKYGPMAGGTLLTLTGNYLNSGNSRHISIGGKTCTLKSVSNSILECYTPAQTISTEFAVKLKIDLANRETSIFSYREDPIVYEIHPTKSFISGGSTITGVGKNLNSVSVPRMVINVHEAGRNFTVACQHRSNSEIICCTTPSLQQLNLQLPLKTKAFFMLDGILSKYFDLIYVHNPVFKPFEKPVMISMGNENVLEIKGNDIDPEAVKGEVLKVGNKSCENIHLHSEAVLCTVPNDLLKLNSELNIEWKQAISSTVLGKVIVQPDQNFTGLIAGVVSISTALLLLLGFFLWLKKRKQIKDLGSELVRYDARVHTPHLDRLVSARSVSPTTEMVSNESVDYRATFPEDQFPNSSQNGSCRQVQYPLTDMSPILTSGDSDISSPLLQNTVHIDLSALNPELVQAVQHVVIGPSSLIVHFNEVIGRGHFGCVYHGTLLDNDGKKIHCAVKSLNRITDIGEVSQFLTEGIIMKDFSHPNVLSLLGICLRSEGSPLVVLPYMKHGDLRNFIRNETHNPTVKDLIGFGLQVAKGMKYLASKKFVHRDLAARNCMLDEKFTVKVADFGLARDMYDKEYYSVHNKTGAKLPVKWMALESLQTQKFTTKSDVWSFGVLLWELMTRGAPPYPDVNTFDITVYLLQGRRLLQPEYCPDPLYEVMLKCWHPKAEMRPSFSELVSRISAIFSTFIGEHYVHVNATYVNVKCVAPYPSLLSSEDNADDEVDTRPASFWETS

| Compound | IC50 |
| --- | --- |
| CCOc1ccn(-c2ccc(F)cc2)c(=O)c1C(=O)Nc1ccc(Oc2ccnc3cc(OC(C)C)c4c(c23)OCCO4)c(F)c1 [Example 63, N-(4-((5-isopropoxy-2,3-dihydro-[1,4]dioxino[2,3-f]quinolin-10-yl)oxy)-3-fluorophenyl)-4-ethoxy-1-(4-fluorophenyl)-2-oxo-1,2-dihydropyridine-3-carboxamide] | ≤ 50 nM |
| CCOc1ccn(-c2ccc(F)cc2)c(=O)c1C(=O)Nc1ccc(Oc2ccnc3cc(OC4COC4)c4c(c23)OCCO4)c(F)c1 [Example 64, N-(4-((5-((oxetan-3-yl)oxy)-2,3-dihydro-[1,4]dioxino[2,3-f]quinolin-10-yl)oxy)-3-fluorophenyl)-4-ethoxy-1-(4-fluorophenyl)-2-oxo-1,2-dihydropyridine-3-carboxamide] | ≤ 50 nM |
| CCOc1ccn(-c2ccc(F)cc2)c(=O)c1C(=O)Nc1ccc(Oc2ccnc3cc(OC4CCOC4)c4c(c23)OCCO4)c(F)c1 (stereo not shown) [Example 65, N-(4-((5-((tetrahydrofuran-3-yl)oxy)-2,3-dihydro-[1,4]dioxino[2,3-f]quinolin-10-yl)oxy)-3-fluorophenyl)-4-ethoxy-1-(4-fluorophenyl)-2-oxo-1,2-dihydropyridine-3-carboxamide] | ≤ 50 nM |
| CCOc1ccn(-c2ccc(F)cc2)c(=O)c1C(=O)Nc1ccc(Oc2ccnc3cc(OC4CCOCC4)c4c(c23)OCCO4)c(F)c1 [Example 66, N-(4-((5-((tetrahydropyran-4-yl)oxy)-2,3-dihydro-[1,4]dioxino[2,3-f]quinolin-10-yl)oxy)-3-fluorophenyl)-4-ethoxy-1-(4-fluorophenyl)-2-oxo-1,2-dihydropyridine-3-carboxamide] | ≤ 50 nM |
| CCOc1ccn(-c2ccc(F)cc2)c(=O)c1C(=O)Nc1ccc(Oc2ccnc3cc(OCCCN4CCC(C)(C)CC4)c4c(c23)OCCO4)c(F)c1 [Example 67, N-(4-((5-(3-(4,4-dimethylpiperidin-1-yl)propoxy)-2,3-dihydro-[1,4]dioxino[2,3-f]quinolin-10-yl)oxy)-3-fluorophenyl)-4-ethoxy-1-(4-fluorophenyl)-2-oxo-1,2-dihydropyridine-3-carboxamide] | ≤ 50 nM |
| CCOc1ccn(-c2ccc(F)cc2)c(=O)c1C(=O)Nc1ccc(Oc2ccnc3cc(OCCCN4CCC(C)(N)CC4)c4c(c23)OCCO4)c(F)c1 [Example 68, N-(4-((5-(3-(4-amino-4-methylpiperidin-1-yl)propoxy)-2,3-dihydro-[1,4]dioxino[2,3-f]quinolin-10-yl)oxy)-3-fluorophenyl)-4-ethoxy-1-(4-fluorophenyl)-2-oxo-1,2-dihydropyridine-3-carboxamide] | ≤ 50 nM |
| CCOc1ccn(-c2ccc(F)cc2)c(=O)c1C(=O)Nc1ccc(Oc2ccnc3cc(OCCCN4CCC(C)(O)CC4)c4c(c23)OCCO4)c(F)c1 [Example 69, N-(4-((5-(3-(4-hydroxy-4-methylpiperidin-1-yl)propoxy)-2,3-dihydro-[1,4]dioxino[2,3-f]quinolin-10-yl)oxy)-3-fluorophenyl)-4-ethoxy-1-(4-fluorophenyl)-2-oxo-1,2-dihydropyridine-3-carboxamide] | ≤ 50 nM |
| CCOc1ccn(-c2ccc(F)cc2)c(=O)c1C(=O)Nc1ccc(Oc2ccnc3cc(OCCCN(C)CCOC)c4c(c23)OCCO4)c(F)c1 [Example 70, N-(4-((5-(3-((2-methoxyethyl)(methyl)amino)propoxy)-2,3-dihydro-[1,4]dioxino[2,3-f]quinolin-10-yl)oxy)-3-fluorophenyl)-4-ethoxy-1-(4-fluorophenyl)-2-oxo-1,2-dihydropyridine-3-carboxamide] | ≤ 50 nM |
| CCOc1ccn(-c2ccc(F)cc2)c(=O)c1C(=O)Nc1ccc(Oc2ccnc3cc(OCCCN(C)C4CCC4)c4c(c23)OCCO4)c(F)c1 [Example 71, N-(4-((5-(3-(cyclobutyl(methyl)amino)propoxy)-2,3-dihydro-[1,4]dioxino[2,3-f]quinolin-10-yl)oxy)-3-fluorophenyl)-4-ethoxy-1-(4-fluorophenyl)-2-oxo-1,2-dihydropyridine-3-carboxamide] | ≤ 50 nM |
| CCOc1ccn(-c2ccc(F)cc2)c(=O)c1C(=O)Nc1ccc(Oc2ccnc3cc(OCCCN4CCOCC4)c4c(c23)OCCO4)c(Cl)c1 [Example 72, N-(4-((5-(3-morpholinopropoxy)-2,3-dihydro-[1,4]dioxino[2,3-f]quinolin-10-yl)oxy)-3-chlorophenyl)-4-ethoxy-1-(4-fluorophenyl)-2-oxo-1,2-dihydropyridine-3-carboxamide] | ≤ 50 nM |
| CCOc1ccn(-c2ccc(F)cc2)c(=O)c1C(=O)Nc1ccc(Oc2ccnc3cc(OCCCN4CCOCC4)c4c(c23)OCCO4)cc1Cl [Example 73, N-(2-chloro-4-((5-(3-morpholinopropoxy)-2,3-dihydro-[1,4]dioxino[2,3-f]quinolin-10-yl)oxy)phenyl)-4-ethoxy-1-(4-fluorophenyl)-2-oxo-1,2-dihydropyridine-3-carboxamide] | ≤ 50 nM |

Now from value to compound:

| IC50 | Compound |
| --- | --- |
| ≤ 50 nM | COCCOc1cc2nccc(Oc3ccc(NC(=O)c4cn(C(C)C)c(=O)n(-c5ccc(F)cc5)c4=O)cc3F)c2c2c1OCCO2 [Example 43, N-(3-fluoro-4-((5-(2-methoxyethoxy)-2,3-dihydro-[1,4]dioxino[2,3-f]quinolin-10-yl)oxy)phenyl)-3-(4-fluorophenyl)-1-isopropyl-2,4-dioxo-1,2,3,4-tetrahydropyrimidine-5-carboxamide] |
| ≤ 50 nM | CCn1cc(C(=O)Nc2ccc(Oc3ccnc4cc(OCCOC)c5c(c34)OCCO5)c(F)c2)c(=O)n(-c2ccc(F)cc2)c1=O [Example 44, N-(3-fluoro-4-((5-(2-methoxyethoxy)-2,3-dihydro-[1,4]dioxino[2,3-f]quinolin-10-yl)oxy)phenyl)-3-(4-fluorophenyl)-1-ethyl-2,4-dioxo-1,2,3,4-tetrahydropyrimidine-5-carboxamide] |
| ≤ 50 nM | COCCn1cc(C(=O)Nc2ccc(Oc3ccnc4cc(OC)c5c(c34)OCCO5)c(F)c2)c(=O)n(-c2ccc(F)cc2)c1=O [Example 46, N-(3-fluoro-4-((5-methoxy-2,3-dihydro-[1,4]dioxino[2,3-f]quinolin-10-yl)oxy)phenyl)-3-(4-fluorophenyl)-1-(2-methoxyethyl)-2,4-dioxo-1,2,3,4-tetrahydropyrimidine-5-carboxamide] |
| ≤ 50 nM | CN1CCN(CCCOc2cc3nccc(Oc4ccc(NC(=O)c5cn(C)c(=O)n(-c6ccc(F)cc6)c5=O)cc4F)c3c3c2OCCO3)CC1 [Example 74, N-(3-fluoro-4-((5-(3-(4-methylpiperazin-1-yl)propoxy)-2,3-dihydro-[1,4]dioxino[2,3-f]quinolin-10-yl)oxy)phenyl)-3-(4-fluorophenyl)-1-methyl-2,4-dioxo-1,2,3,4-tetrahydropyrimidine-5-carboxamide] |
| 50 to 500 nM | CC(C)n1cc(C(=O)Nc2ccc(Oc3ccnc4cc(OCCCN5CCS(=O)(=O)CC5)c5c(c34)OCCO5)c(F)c2)c(=O)n(-c2ccc(F)cc2)c1=O [Example 76, N-(3-fluoro-4-((5-(3-(1,1-dioxidothiomorpholino)propoxy)-2,3-dihydro-[1,4]dioxino[2,3-f]quinolin-10-yl)oxy)phenyl)-3-(4-fluorophenyl)-1-isopropyl-2,4-dioxo-1,2,3,4-tetrahydropyrimidine-5-carboxamide] |
| ≤ 50 nM | COCCCOc1cc2nccc(Oc3ccc(NC(=O)c4cn(C)c(=O)n(-c5ccc(F)cc5)c4=O)cc3F)c2c2c1OCCO2 [Example 80, N-(3-fluoro-4-((5-(3-methoxypropoxy)-2,3-dihydro-[1,4]dioxino[2,3-f]quinolin-10-yl)oxy)phenyl)-3-(4-fluorophenyl)-1-methyl-2,4-dioxo-1,2,3,4-tetrahydropyrimidine-5-carboxamide] |
| ≤ 50 nM | CC(C)Oc1cc2nccc(Oc3ccc(NC(=O)c4cn(C)c(=O)n(-c5ccc(F)cc5)c4=O)cc3F)c2c2c1OCCO2 [Example 88, N-(3-fluoro-4-((5-isopropoxy-2,3-dihydro-[1,4]dioxino[2,3-f]quinolin-10-yl)oxy)phenyl)-3-(4-fluorophenyl)-1-methyl-2,4-dioxo-1,2,3,4-tetrahydropyrimidine-5-carboxamide] |
| ≤ 50 nM | Cn1cc(C(=O)Nc2ccc(Oc3ccnc4cc(OC5CCOCC5)c5c(c34)OCCO5)c(F)c2)c(=O)n(-c2ccc(F)cc2)c1=O [Example 91, N-(3-fluoro-4-((5-((tetrahydropyran-4-yl)oxy)-2,3-dihydro-[1,4]dioxino[2,3-f]quinolin-10-yl)oxy)phenyl)-3-(4-fluorophenyl)-1-methyl-2,4-dioxo-1,2,3,4-tetrahydropyrimidine-5-carboxamide] |
| 50 to 500 nM | CC(C)n1cc(C(=O)Nc2ccc(Oc3ccnc4cc(OCCCN5CCC(C)(C)CC5)c5c(c34)OCCO5)c(F)c2)c(=O)n(-c2ccc(F)cc2)c1=O [Example 92, N-(3-fluoro-4-((5-(3-(4,4-dimethylpiperidin-1-yl)propoxy)-2,3-dihydro-[1,4]dioxino[2,3-f]quinolin-10-yl)oxy)phenyl)-3-(4-fluorophenyl)-1-isopropyl-2,4-dioxo-1,2,3,4-tetrahydropyrimidine-5-carboxamide] |
| ≤ 50 nM | CC(C)n1cc(C(=O)Nc2ccc(Oc3ccnc4cc(OCCCN5CCC(C)(N)CC5)c5c(c34)OCCO5)c(F)c2)c(=O)n(-c2ccc(F)cc2)c1=O [Example 93, N-(3-fluoro-4-((5-(3-(4-amino-4-methylpiperidin-1-yl)propoxy)-2,3-dihydro-[1,4]dioxino[2,3-f]quinolin-10-yl)oxy)phenyl)-3-(4-fluorophenyl)-1-isopropyl-2,4-dioxo-1,2,3,4-tetrahydropyrimidine-5-carboxamide] |
